PubChem BioAssay (NCI)
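Step 1: Grow cells in 96-well plates. Step 2: Expose to compound for 48 hours at 5 concentrations. Step 3: Interpolate endpoints linearly; if unreached, use highest concentration. Here, GI50 denotes the concentration required for 50% inhibition of growth. TGI marks complete inhibition of growth.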

Each molecule was assayed on COLO 205 colon (assay: NCI anticancer screen, dose series, 48 h).
In the case of `COC(=O)C1C(O)C(C(=O)OC)C(C)N(C)C1C` (configuration not stated), the TGI is reported as over 100 µM.

Each molecule was assayed on DU-145 prostate (assay: NCI anticancer screen, dose series, 48 h).
In the case of `C=C1c2cc3c(cc2CC12Cc1cc4c(cc1C2=O)CCC4)CCC3` (configuration not stated), the TGI is reported as over 100 µM.
Work on `NNC1=N/C(=C\c2ccco2)C(Cl)=N1` yielded a TGI of over 100 µM.
`CC1=C2C(=C[C@H]3[C@]4(C)CCCC(C)(C)[C@H]4CC[C@]34O[C@H]24)OC1=O` was tested, and the TGI was over 100 µM.
With `COc1cc2c(Nc3cc(Cl)c(OC)c(Cl)c3)c(C#N)cnc2cc1OCCCN1CCN(C)CC1` the GI50 was 1.28 µM and the TGI was 13 µM.
In the case of `c1ccc2c(c1)c1c(n2CCOCCN2CCOCC2)CCCC1`, the TGI is reported as over 100 µM.
Work on `CCOC(=O)c1c(-c2ccccc2)c(-c2ccccc2)cn1C` yielded a TGI of over 10 µM.

The molecules below were run on EKVX NSCLC (assay: NCI anticancer screen, dose series, 48 h).
Molecule `C=C1c2cc3c(cc2CC12Cc1cc4c(cc1C2=O)CCC4)CCC3` (configuration not stated) has a TGI of over 100 µM.
`NNC1=N/C(=C\c2ccco2)C(Cl)=N1` was tested, and the TGI was over 100 µM.
`CC1=C2C(=C[C@H]3[C@]4(C)CCCC(C)(C)[C@H]4CC[C@]34O[C@H]24)OC1=O` showed a TGI of over 100 µM.
In the case of `COc1cc2c(Nc3cc(Cl)c(OC)c(Cl)c3)c(C#N)cnc2cc1OCCCN1CCN(C)CC1`, the GI50 is reported as 1.17 µM and the TGI is reported as 18.9 µM.
`COC(=O)C1C(O)C(C(=O)OC)C(C)N(C)C1C` (configuration not stated) gave a TGI of over 100 µM.
In the case of `c1ccc2c(c1)c1c(n2CCOCCN2CCOCC2)CCCC1`, the TGI is reported as over 100 µM.
`CCOC(=O)c1c(-c2ccccc2)c(-c2ccccc2)cn1C` showed a TGI of over 10 µM.

What follows are molecules tested on HCC-2998 colon (assay: NCI anticancer screen, dose series, 48 h).
Work on `C=C1c2cc3c(cc2CC12Cc1cc4c(cc1C2=O)CCC4)CCC3` (configuration not stated) yielded a TGI of over 100 µM.
Molecule `NNC1=N/C(=C\c2ccco2)C(Cl)=N1` has a TGI of over 100 µM.
In the case of `CC1=C2C(=C[C@H]3[C@]4(C)CCCC(C)(C)[C@H]4CC[C@]34O[C@H]24)OC1=O`, the TGI is reported as over 100 µM.
With `COc1cc2c(Nc3cc(Cl)c(OC)c(Cl)c3)c(C#N)cnc2cc1OCCCN1CCN(C)CC1` the GI50 was 1.56 µM and the TGI was 4.1 µM.
For `CCOC(=O)c1c(-c2ccccc2)c(-c2ccccc2)cn1C`, the TGI was over 10 µM.

These molecules were tested on HCT-116 colon (assay: NCI anticancer screen, dose series, 48 h).
For `C=C1c2cc3c(cc2CC12Cc1cc4c(cc1C2=O)CCC4)CCC3` (configuration not stated), the TGI was over 100 µM.
Work on `NNC1=N/C(=C\c2ccco2)C(Cl)=N1` yielded a TGI of over 100 µM.
`CC1=C2C(=C[C@H]3[C@]4(C)CCCC(C)(C)[C@H]4CC[C@]34O[C@H]24)OC1=O` was tested, and the TGI was over 100 µM.
Molecule `COc1cc2c(Nc3cc(Cl)c(OC)c(Cl)c3)c(C#N)cnc2cc1OCCCN1CCN(C)CC1` has a GI50 of 1.21 µM and a TGI of 3.49 µM.
Work on `COC(=O)C1C(O)C(C(=O)OC)C(C)N(C)C1C` (configuration not stated) yielded a TGI of over 100 µM.
Molecule `c1ccc2c(c1)c1c(n2CCOCCN2CCOCC2)CCCC1` has a TGI of over 100 µM.

These molecules were tested on HCT-15 colon (assay: NCI anticancer screen, dose series, 48 h).
Work on `C=C1c2cc3c(cc2CC12Cc1cc4c(cc1C2=O)CCC4)CCC3` (configuration not stated) yielded a TGI of over 100 µM.
`NNC1=N/C(=C\c2ccco2)C(Cl)=N1` gave a TGI of over 100 µM.
`CC1=C2C(=C[C@H]3[C@]4(C)CCCC(C)(C)[C@H]4CC[C@]34O[C@H]24)OC1=O` was tested, and the TGI was over 100 µM.
`COc1cc2c(Nc3cc(Cl)c(OC)c(Cl)c3)c(C#N)cnc2cc1OCCCN1CCN(C)CC1` was tested, and the GI50 was 1.32 µM and the TGI was 12.1 µM.
With `COC(=O)C1C(O)C(C(=O)OC)C(C)N(C)C1C` (configuration not stated) the TGI was over 100 µM.
`c1ccc2c(c1)c1c(n2CCOCCN2CCOCC2)CCCC1` gave a TGI of over 100 µM.
`CCOC(=O)c1c(-c2ccccc2)c(-c2ccccc2)cn1C` gave a TGI of over 10 µM.

These molecules were tested on HL-60(TB) leukemia (assay: NCI anticancer screen, dose series, 48 h).
Molecule `C=C1c2cc3c(cc2CC12Cc1cc4c(cc1C2=O)CCC4)CCC3` (configuration not stated) has a TGI of over 100 µM.
Molecule `NNC1=N/C(=C\c2ccco2)C(Cl)=N1` has a TGI of 51.4 µM.
`COc1cc2c(Nc3cc(Cl)c(OC)c(Cl)c3)c(C#N)cnc2cc1OCCCN1CCN(C)CC1` showed a GI50 of 1.78 µM and a TGI of 4.03 µM.
Work on `COC(=O)C1C(O)C(C(=O)OC)C(C)N(C)C1C` (configuration not stated) yielded a TGI of over 100 µM.
Work on `c1ccc2c(c1)c1c(n2CCOCCN2CCOCC2)CCCC1` yielded a TGI of 51.9 µM.
Molecule `CCOC(=O)c1c(-c2ccccc2)c(-c2ccccc2)cn1C` has a TGI of over 10 µM.

These molecules were tested on HOP-62 NSCLC (assay: NCI anticancer screen, dose series, 48 h).
In the case of `C=C1c2cc3c(cc2CC12Cc1cc4c(cc1C2=O)CCC4)CCC3` (configuration not stated), the TGI is reported as over 100 µM.
With `NNC1=N/C(=C\c2ccco2)C(Cl)=N1` the TGI was over 100 µM.
In the case of `CC1=C2C(=C[C@H]3[C@]4(C)CCCC(C)(C)[C@H]4CC[C@]34O[C@H]24)OC1=O`, the TGI is reported as over 100 µM.
For `COc1cc2c(Nc3cc(Cl)c(OC)c(Cl)c3)c(C#N)cnc2cc1OCCCN1CCN(C)CC1`, the GI50 was 3.39 µM and the TGI was 12.1 µM.
`COC(=O)C1C(O)C(C(=O)OC)C(C)N(C)C1C` (configuration not stated) showed a TGI of over 100 µM.
Molecule `c1ccc2c(c1)c1c(n2CCOCCN2CCOCC2)CCCC1` has a TGI of over 100 µM.

What follows are molecules tested on HOP-92 NSCLC (assay: NCI anticancer screen, dose series, 48 h).
Work on `C=C1c2cc3c(cc2CC12Cc1cc4c(cc1C2=O)CCC4)CCC3` (configuration not stated) yielded a TGI of over 100 µM.
